Assay results from ChEMBL document CHEMBL1201862, “PubChem BioAssay data set” (2004).
Active and inactive are the calls of the source.

What was measured:
[1] = target: Peroxisome proliferator-activated receptor gamma/Nuclear receptor coactivator 2 (Homo sapiens, UniProt P37231); type: functional;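 also: agonist potency for raising coactivator recruitment to the receptor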
[2] = target: Peroxisome proliferator-activated receptor gamma/Nuclear receptor coactivator 1 (Homo sapiens, UniProt P37231); type: functional;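 also: agonist potency as compounds enhance coactivator SRC-1 recruitment to PPARgamma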
[3] = target: Peroxisome proliferator-activated receptor gamma/Nuclear receptor coactivator 3 (Homo sapiens, UniProt P37231); type: functional;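 also: agonist potency for raising coactivator recruitment to the receptor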
[4] = target: Glucose-6-phosphate 1-dehydrogenase (Homo sapiens, UniProt P11413); test: human G6PD enzyme inhibitors, dose response, selectivity assay for P. falciparum G6PD inhibitor project, biochemical, fluorescence (AID 504792); type: functional
Sequence of Glucose-6-phosphate 1-dehydrogenase (P11413 whole entry): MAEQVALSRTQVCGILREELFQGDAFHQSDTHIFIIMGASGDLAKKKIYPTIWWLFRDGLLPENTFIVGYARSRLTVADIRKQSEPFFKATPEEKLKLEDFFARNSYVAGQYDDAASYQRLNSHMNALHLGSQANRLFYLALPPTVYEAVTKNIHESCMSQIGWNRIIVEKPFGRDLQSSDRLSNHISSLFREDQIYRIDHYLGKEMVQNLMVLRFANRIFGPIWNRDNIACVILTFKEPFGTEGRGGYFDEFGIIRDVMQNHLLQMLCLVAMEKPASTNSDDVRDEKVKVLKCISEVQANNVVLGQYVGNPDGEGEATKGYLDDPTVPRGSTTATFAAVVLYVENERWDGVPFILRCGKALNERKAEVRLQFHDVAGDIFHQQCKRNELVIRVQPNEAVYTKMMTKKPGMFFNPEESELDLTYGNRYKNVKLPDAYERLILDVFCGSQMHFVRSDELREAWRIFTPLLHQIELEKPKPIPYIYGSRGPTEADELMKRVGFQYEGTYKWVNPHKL

[5] = THP-1 cell cytotoxicity, dose response, cytotoxicity control for Vif-APOBEC3G degradation inhibitor project, THP-1 cells (AID 1117359); type: functional; conditions: Human immunodeficiency virus 1, THP-1
Leucine aminopeptidase = target: T1, Leucine aminopeptidase (Plasmodium falciparum 3D7, UniProt Q8IL11); test: P. falciparum M17LAP inhibitors, primary screen, biochemical, fluorogenic H-Leu-NHMec substrate, 1536-well (AID 1619); type: functional
T1 sequence (Q8IL11 whole entry): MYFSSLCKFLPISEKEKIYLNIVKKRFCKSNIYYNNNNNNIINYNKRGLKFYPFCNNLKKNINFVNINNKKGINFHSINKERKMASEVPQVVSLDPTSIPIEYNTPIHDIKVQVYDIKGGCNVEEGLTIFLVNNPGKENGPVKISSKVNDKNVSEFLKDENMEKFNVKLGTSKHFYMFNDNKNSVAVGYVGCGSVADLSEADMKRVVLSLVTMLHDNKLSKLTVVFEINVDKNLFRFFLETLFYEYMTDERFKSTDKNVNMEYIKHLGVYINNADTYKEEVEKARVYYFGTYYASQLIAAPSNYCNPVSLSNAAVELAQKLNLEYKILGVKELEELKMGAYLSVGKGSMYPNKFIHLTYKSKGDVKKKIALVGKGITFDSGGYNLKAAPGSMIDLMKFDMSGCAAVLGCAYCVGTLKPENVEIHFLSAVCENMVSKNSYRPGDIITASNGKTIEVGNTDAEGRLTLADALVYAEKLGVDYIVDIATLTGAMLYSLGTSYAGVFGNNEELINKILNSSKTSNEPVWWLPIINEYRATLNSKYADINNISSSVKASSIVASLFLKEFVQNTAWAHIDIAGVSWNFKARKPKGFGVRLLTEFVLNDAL

[6] = enhancers of respiration in Yfh1-depleted yeast, dose response, Friedreich's ataxia, plus single-dose screen (AID 1465); type: functional;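 also: yeast depleted of Yfh1p frataxin homolog grown on glycerol needing respiration; WST-1 tetrazolium dye reduction as measure of cellular dehydrogenase metabolic activity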
[7] = target: Glyceraldehyde-3-phosphate dehydrogenase (Homo sapiens, UniProt P04406)
Sequence of Glyceraldehyde-3-phosphate dehydrogenase (P04406 whole entry): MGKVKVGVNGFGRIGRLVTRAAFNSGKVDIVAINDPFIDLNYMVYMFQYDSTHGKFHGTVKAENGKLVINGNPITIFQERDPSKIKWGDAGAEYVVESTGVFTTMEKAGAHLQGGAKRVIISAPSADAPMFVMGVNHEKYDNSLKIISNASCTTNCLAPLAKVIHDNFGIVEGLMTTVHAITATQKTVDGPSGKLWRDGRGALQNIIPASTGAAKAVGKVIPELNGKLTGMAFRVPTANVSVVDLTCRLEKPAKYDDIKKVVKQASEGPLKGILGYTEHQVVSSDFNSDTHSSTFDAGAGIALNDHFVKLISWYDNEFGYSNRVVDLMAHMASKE

[8] = target: T2, Acyl-homoserine lactone acylase PvdQ (Pseudomonas aeruginosa (strain LESB58), UniProt Q9I194); test: P. aeruginosa PvdQ acylase inhibitors, dose response, biochemical, fluorescence, plate reader and imaging, cherry-picks (AID 493231)
T2 sequence (Q9I194 whole entry): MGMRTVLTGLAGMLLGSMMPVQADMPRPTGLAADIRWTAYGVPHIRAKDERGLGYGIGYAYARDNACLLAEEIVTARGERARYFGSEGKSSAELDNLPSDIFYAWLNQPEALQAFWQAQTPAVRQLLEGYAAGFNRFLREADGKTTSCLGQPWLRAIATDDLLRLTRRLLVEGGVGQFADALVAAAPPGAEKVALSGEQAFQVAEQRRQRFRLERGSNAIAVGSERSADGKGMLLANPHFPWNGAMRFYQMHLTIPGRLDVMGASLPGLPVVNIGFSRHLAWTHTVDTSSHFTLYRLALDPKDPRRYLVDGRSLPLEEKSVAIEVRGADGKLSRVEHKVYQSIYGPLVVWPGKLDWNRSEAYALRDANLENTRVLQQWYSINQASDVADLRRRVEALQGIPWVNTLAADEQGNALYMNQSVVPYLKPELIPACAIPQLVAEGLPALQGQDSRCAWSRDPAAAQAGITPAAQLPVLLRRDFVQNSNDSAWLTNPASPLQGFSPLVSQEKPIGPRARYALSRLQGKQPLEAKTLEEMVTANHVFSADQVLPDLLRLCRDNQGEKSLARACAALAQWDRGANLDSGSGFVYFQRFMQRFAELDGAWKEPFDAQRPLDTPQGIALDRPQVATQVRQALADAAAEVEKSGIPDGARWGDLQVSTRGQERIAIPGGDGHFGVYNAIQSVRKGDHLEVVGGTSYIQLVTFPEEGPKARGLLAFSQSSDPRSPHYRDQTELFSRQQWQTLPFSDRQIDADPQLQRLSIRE

[9] = THP-1 cell cytotoxicity, dose response, cytotoxicity control for non-replicating M. tuberculosis project (AID 489025); type: functional
[10] = Vero E6 cell cytotoxicity, dose response, cytotoxicity control for non-replicating M. tuberculosis project, secondary assay (AID 492998); type: functional, VeroE6; conditions: Vero C1008
cells [11] = type: functional
[12] = target: T3, DNA dC->dU-editing enzyme APOBEC-3A (Homo sapiens, UniProt P31941); test: Dose Response confirmation of small molecule APOBEC3A DNA Deaminase Inhibitors via a fluorescence-based single-stranded DNA deaminase assay. [Related pubchem assays (depositor defined):AID493011, AID493024]; type: functional
T3 sequence (P31941 whole entry): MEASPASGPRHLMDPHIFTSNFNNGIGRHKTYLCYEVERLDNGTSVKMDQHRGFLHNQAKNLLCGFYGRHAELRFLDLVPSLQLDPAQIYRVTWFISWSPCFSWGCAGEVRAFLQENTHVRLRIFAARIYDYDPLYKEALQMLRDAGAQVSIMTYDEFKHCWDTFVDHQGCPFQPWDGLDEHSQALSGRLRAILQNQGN

[13] = target: T4, DNA dC->dU-editing enzyme APOBEC-3G (Homo sapiens, UniProt Q9HC16); type: functional
T4 sequence (Q9HC16 whole entry): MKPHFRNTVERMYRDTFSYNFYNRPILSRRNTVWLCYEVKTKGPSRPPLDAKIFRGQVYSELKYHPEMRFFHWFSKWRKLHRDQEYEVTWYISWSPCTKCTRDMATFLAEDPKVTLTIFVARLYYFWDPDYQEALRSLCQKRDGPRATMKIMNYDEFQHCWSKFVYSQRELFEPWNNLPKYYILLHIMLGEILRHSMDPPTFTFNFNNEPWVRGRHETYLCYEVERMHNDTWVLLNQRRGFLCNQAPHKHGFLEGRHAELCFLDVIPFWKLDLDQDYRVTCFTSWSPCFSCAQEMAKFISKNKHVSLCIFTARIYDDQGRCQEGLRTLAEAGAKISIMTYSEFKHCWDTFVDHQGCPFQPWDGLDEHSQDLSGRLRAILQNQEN

[14] = target: Neurotensin receptor type 1 (Homo sapiens, UniProt P30989); type: functional;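 also: Image-based confirmatory dose-response assay measuring agonist activity at NTR1; NTR1-expressing U2OS osteosarcoma cells imaged for beta-arrestin GFP spot formation; agonist potency where compounds increase beta-arrestin recruitment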
Sequence of Neurotensin receptor type 1 (P30989 whole entry): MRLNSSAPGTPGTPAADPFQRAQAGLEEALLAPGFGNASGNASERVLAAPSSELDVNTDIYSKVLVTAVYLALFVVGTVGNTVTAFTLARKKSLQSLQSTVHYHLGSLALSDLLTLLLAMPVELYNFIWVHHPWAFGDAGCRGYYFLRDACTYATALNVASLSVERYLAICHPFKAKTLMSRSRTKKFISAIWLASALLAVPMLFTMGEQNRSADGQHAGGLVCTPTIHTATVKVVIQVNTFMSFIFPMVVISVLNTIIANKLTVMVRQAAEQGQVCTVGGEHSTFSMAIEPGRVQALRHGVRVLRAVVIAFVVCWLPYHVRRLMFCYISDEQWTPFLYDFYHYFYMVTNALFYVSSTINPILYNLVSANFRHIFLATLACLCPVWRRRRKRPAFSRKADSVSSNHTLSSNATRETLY

[15] = target: T5, Heat shock factor protein 1 (Mus musculus, UniProt P38532); test: HSF1 potentiators in luciferase reporter cells, confirmation, cell-based, NIH3T3, luminescence, dose retest (AID 435004); type: functional;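 also: stress induced by proteasome inhibitor MG132 added 30 min after compound; luciferase reporter driven by HSF1 response element in NIH3T3 cells; actives raise luminescence as potentiators of the MG132 stress response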
T5 sequence (P38532 whole entry): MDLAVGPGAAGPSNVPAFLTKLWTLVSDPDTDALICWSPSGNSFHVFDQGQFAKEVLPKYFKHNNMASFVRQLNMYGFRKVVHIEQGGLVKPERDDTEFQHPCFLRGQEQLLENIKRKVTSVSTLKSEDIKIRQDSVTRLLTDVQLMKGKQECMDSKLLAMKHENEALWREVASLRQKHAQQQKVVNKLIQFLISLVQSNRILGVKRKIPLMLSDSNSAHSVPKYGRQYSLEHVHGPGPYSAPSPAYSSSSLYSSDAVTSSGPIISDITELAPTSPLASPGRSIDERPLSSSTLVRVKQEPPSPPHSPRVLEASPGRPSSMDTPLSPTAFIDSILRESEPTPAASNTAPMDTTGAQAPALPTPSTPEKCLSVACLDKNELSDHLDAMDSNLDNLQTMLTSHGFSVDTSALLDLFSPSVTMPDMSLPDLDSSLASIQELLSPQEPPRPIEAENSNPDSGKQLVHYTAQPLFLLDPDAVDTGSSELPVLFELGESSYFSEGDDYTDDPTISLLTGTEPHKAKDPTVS

[16] = target: T6, Voltage-gated N-type calcium channel alpha-1B subunit/Amyloid beta A4 precursor protein-binding family A member 1 (Homo sapiens, UniProt Q00975+Q02410); test: disruptors of Mint-PDZ/N-type channel peptide interaction – biochemical, HTRF, set 2, SAR follow-up (AID 434980); type: functional
T6 sequence (Q00975 whole entry): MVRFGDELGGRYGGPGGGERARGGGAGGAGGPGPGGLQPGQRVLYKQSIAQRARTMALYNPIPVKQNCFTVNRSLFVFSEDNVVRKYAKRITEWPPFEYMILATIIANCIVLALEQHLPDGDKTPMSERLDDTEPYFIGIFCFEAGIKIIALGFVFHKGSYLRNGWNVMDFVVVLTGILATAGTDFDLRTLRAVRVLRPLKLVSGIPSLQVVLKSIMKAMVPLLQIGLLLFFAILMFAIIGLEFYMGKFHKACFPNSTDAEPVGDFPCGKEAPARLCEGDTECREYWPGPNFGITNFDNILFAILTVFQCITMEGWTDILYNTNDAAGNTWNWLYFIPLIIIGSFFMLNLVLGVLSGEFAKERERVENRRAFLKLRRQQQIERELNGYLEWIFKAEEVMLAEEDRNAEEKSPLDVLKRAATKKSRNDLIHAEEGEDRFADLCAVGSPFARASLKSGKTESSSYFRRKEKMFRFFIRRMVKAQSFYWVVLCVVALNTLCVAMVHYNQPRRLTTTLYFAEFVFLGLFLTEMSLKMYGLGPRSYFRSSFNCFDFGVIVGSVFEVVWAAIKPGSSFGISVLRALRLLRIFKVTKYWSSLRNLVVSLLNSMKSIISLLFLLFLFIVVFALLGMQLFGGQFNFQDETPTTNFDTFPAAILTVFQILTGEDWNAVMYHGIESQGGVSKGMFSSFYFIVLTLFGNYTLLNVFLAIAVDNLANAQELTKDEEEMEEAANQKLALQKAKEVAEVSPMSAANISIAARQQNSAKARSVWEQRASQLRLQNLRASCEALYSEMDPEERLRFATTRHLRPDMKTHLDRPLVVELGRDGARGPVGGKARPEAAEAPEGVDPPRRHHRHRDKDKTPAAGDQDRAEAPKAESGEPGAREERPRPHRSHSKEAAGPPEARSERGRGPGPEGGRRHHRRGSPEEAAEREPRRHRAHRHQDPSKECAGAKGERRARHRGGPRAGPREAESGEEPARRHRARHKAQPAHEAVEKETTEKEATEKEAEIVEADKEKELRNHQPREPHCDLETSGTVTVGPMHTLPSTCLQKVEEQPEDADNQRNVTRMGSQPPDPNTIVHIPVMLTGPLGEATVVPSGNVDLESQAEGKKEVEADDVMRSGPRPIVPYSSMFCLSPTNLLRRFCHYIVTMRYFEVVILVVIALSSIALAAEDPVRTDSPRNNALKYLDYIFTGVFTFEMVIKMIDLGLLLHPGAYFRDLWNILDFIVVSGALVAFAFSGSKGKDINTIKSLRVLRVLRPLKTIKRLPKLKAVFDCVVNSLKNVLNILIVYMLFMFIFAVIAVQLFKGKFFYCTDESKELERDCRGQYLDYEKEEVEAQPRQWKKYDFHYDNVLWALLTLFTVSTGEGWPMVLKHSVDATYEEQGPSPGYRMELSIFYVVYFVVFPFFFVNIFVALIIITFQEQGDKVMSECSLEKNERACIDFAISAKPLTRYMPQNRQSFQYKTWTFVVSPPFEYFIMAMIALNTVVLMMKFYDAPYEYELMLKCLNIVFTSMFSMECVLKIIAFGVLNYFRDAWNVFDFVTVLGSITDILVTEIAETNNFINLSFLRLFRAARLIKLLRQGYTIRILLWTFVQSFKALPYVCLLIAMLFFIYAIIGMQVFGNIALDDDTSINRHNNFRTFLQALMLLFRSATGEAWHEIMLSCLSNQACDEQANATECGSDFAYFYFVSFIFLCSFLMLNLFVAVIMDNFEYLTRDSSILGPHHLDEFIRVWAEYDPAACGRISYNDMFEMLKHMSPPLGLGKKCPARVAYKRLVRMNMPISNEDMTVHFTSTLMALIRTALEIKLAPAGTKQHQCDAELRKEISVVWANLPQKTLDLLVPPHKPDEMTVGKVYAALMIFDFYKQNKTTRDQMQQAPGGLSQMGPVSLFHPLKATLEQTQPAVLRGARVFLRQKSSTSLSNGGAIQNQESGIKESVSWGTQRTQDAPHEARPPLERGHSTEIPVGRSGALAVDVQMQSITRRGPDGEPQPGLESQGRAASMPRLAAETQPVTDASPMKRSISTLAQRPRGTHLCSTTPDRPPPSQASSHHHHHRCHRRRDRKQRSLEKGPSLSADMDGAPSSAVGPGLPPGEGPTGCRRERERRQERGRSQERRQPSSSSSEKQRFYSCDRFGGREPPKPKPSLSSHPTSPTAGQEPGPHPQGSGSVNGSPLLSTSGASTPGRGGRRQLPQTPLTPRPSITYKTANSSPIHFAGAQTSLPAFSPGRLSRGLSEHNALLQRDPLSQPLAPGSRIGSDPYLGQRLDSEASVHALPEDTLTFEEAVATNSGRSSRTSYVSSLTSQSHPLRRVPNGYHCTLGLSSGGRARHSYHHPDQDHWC
T6 sequence (Q02410 whole entry): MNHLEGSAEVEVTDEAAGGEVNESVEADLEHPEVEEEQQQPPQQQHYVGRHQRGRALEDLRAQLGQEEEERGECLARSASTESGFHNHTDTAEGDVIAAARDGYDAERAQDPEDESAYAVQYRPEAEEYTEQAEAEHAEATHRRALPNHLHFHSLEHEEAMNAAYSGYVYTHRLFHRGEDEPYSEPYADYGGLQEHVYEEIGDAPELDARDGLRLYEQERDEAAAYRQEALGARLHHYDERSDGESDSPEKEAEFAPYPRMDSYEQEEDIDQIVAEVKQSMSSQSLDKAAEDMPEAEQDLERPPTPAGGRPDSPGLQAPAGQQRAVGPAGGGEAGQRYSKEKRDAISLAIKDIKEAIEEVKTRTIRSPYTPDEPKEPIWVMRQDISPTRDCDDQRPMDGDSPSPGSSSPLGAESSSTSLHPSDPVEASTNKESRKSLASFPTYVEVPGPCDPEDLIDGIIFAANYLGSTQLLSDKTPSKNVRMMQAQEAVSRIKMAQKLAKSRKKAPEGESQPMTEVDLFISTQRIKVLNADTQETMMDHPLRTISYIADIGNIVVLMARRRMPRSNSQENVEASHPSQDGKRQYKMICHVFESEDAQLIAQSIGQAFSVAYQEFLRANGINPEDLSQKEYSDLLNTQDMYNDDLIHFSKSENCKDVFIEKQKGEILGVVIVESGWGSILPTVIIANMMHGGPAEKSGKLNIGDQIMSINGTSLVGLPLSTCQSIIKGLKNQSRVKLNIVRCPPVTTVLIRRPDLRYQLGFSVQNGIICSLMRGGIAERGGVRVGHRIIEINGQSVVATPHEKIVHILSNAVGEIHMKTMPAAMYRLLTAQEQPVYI

[17] = target: T6, Voltage-gated N-type calcium channel alpha-1B subunit/Amyloid beta A4 precursor protein-binding family A member 1; test: disruptors of Mint-PDZ/N-type channel peptide interaction – biochemical, HTRF, SAR follow-up (AID 2489); type: functional
Hexokinase = target: T7, Hexokinase (Trypanosoma brucei, UniProt Q38C41); test: Confirmation assay for inhibitors of Trypanosoma brucei hexokinase 1-Analogue-first series. [Related pubchem assays (depositor defined):AID1430, AID1632, AID2516, AID2560, AID2579, AID2600, AID449725, AID492951]; type: functional
T7 sequence (Q38C41 whole entry): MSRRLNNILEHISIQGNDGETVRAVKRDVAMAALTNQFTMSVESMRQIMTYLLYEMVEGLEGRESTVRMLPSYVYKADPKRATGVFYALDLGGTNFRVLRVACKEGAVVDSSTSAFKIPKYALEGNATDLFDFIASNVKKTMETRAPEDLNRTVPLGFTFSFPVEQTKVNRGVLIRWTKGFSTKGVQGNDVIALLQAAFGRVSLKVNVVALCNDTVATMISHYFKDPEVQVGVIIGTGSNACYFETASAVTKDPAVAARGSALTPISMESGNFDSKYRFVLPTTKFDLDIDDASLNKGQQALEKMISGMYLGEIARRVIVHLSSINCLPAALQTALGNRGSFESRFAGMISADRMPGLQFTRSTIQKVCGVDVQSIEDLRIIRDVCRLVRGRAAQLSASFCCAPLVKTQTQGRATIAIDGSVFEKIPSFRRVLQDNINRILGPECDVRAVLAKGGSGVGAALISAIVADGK

[18] = target: T3, DNA dC->dU-editing enzyme APOBEC-3A; test: APOBEC3A DNA deaminase inhibitors, dose response, biochemical (AID 504722); type: functional
[19] = target: T4, DNA dC->dU-editing enzyme APOBEC-3G; test: Dose Response confirmation of small molecule APOBEC3G DNA Deaminase Inhibitors via a fluorescence-based single-stranded DNA deaminase assay. [Related pubchem assays (depositor defined):AID493012, AID493028]; type: functional
[20] = target: T6, Voltage-gated N-type calcium channel alpha-1B subunit/Amyloid beta A4 precursor protein-binding family A member 1; type: protein assay
[21] = target: T6, Voltage-gated N-type calcium channel alpha-1B subunit/Amyloid beta A4 precursor protein-binding family A member 1; type: protein assay; remark: listed apart in the source
[22] = target: T8, C-C chemokine receptor type 6 (Homo sapiens, UniProt P51684); test: CCR6 receptor antagonists, dose response, cell-based, luminescent beta-arrestin readout (AID 504728); type: functional
T8 sequence (P51684 whole entry): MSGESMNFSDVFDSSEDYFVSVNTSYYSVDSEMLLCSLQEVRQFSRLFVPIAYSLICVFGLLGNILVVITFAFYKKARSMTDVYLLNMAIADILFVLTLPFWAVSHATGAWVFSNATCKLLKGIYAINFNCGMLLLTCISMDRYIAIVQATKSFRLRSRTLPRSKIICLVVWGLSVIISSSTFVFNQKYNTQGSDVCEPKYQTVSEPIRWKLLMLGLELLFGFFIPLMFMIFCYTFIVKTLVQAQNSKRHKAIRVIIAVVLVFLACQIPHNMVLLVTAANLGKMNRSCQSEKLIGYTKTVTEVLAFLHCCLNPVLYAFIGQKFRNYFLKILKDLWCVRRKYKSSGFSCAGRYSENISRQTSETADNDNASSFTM

Beta-galactosidase = Beta-galactosidase (Escherichia coli, UniProt Q8VNN2); test: beta-galactosidase enzyme inhibitors and activators, dose response, artefact control for CCR6 antagonist project, biochemical, E. coli enzyme, set 3 (AID 504712); type: functional
cells [23] = test: cells

Oc1ccc(NCc2ccccc2OCc2ccccc2)cc1
EC50 [1]: > 79.4 µM (not active)
EC50 [2]: > 79.4 µM (not active)
EC50 [3]: > 79.4 µM (not active)
IC50 [4]: > 80 µM (inactive)
CC50 [5]: 22.7 µM (active)

COCCNC(=O)/C(C#N)=C/c1ccc(N2CCOCC2)o1
IC50 (Leucine aminopeptidase): 113 µM (active)
EC50 [6]: > 100 µM (active)

COc1cc(C)c(C)cc1S(=O)(=O)Nc1cccnc1
IC50 [7]: > 100 µM (not active)

N#CC(Sc1ccccn1)c1ccc(Cl)cc1 (stereo not drawn)
AC50 [8]: 7.09 µM (active)

CC(C)CCCN1C(=O)NC(=O)/C(=C\c2ccc[nH]2)C1=O
CC50 [9]: > 40 µM (active)
CC50 [10]: > 20 µM (active)
IC50 (cells [11]): 1.22 µM (active)

CCOc1ccc(CN2C(=O)c3ccccc3C2=O)cc1C(=O)NC1CC(C)(C)NC(C)(C)C1
IC50 [12]: 2.87 µM (active)
IC50 [13]: 3.18 µM (active)

O=C(/C=C/c1cccnc1)c1ccc(F)c(F)c1
EC50 [14]: 11.4 µM (active)

N#Cc1ccc(-c2ccc(Cl)cc2)nc1Oc1ccc(F)cc1
EC50 [1]: > 79.4 µM (not active)
EC50 [2]: > 79.4 µM (not active)
EC50 [3]: > 79.4 µM (not active)
EC50 [15]: > 260 µM (inconclusive)

Cc1cccc(N2C(=O)C3C(C2=O)C2(C)C=CC3(C)O2)c1 (stereo not drawn)
IC50 [16]: 8.93 µM (active)
IC50 [17]: 27.6 µM (active)

Cc1cc(C)cc(N2CC(c3nc4ccccc4n3C)CC2=O)c1 (stereo not drawn)
IC50 [12]: 9.16 µM (active)
IC50 [13]: 16.1 µM (active)

O=C(Nc1cc(Cl)ccc1C(=O)O)c1ccc(C2CC2)cc1
IC50 (Hexokinase): 5.77 µM (active)

Cc1ccsc1/C=N/n1c(S)nnc1-c1ccccn1
IC50 [18]: > 100 µM (inactive)
IC50 [19]: 4.89 µM (active)

CCCCCCCC(=O)Nc1cc(Cl)ccc1C(=O)O
IC50 (Hexokinase): > 25 µM (inactive)

CCN1CCN(c2ccc(NC(=O)c3ccc4c(c3)OCCO4)cc2C)CC1
IC50 [12]: 4.49 µM (active)
IC50 [13]: 4.12 µM (active)

CCN1CCN(C2=C(Cl)C(=O)N(c3cccc(C(F)(F)F)c3)C2=O)CC1
IC50 [7]: > 50 µM (inconclusive)

CC(C)NC(=O)COC(=O)/C=C/c1ccco1
IC50 [20]: 9.71 µM (active)
IC50 [21]: > 50 µM (inactive)

CC(=O)Oc1ccc(N2C(=O)C3C4C=CC(O4)C3C2=O)cc1 (stereo not drawn)
IC50 [16]: 18.8 µM (active)
IC50 [17]: > 56.8 µM (inactive)

COc1ccc(/N=C(\C)C2=C(O)SCC2=O)cc1
AC50 [8]: 12.4 µM (active)

O=C(NCCCN1CCOCC1)c1sc2cc([N+](=O)[O-])ccc2c1Cl
IC50 [18]: > 100 µM (inactive)
IC50 [4]: > 80 µM (inactive)
IC50 [19]: 6.34 µM (active)

CC1(C)C2CC[C@]3(C)C(CC=C4[C@@H]5C[C@@](C)(CO)[C@@H]6C[C@@]5(CC[C@]43C)C(=O)O6)[C@@]2(C)CC[C@@H]1O (stereo partly drawn)
IC50 [22]: > 66.6 µM (inactive)
IC50 (Beta-galactosidase): > 66.6 µM (inactive)

Cc1ccc(-n2c(=O)c3sccc3n(Cc3cc(=O)n4ccccc4n3)c2=O)cc1
IC50 (cells [23]): 26.4 µM (active)

COc1ccc2c(=O)n(-c3ccccc3)sc2c1
IC50 (Hexokinase): 3 µM (active)

COc1ccc(NC2c3ncccc3C(=O)N2Cc2cccs2)cc1 (stereo not drawn)
IC50 (cells [23]): 45.6 µM (active)
